Assay results published in patent US20240245682A1, “ALPHA-V-BETA-8 INTEGRIN INHIBITORS AND USES THEREOF” (Pliant Therapeutics, Inc., priority 2022, published 2024).

Experiments:
Experiment in all cases: AlphaScreen proximity-based integrin binding assay with TGF-b1 LAP
Details in all cases: values given as ranges
[1] = biological target: human integrin αVβ8 (Homo sapiens, UniProt P06756+P26012)
Method in brief: (§1)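 Purified human integrin incubated with compound, TGF-b1 LAP, biotinylated anti-LAP antibody and acceptor beads for 2 h, then streptavidin donor beads 30 min, room temperature, in 50 mM Tris-HCl pH 7.5, 0.1% BSA, 1 mM CaCl2/MgCl2. AlphaScreen signal (680 nm excitation, 520-620 nm emission); IC50 by four-parameter fit.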

[2] = biological target: human integrin αVβ6 (Homo sapiens, UniProt P06756+P18564)
Sequence of human integrin αVβ6 (P06756 31-992 limits assumed): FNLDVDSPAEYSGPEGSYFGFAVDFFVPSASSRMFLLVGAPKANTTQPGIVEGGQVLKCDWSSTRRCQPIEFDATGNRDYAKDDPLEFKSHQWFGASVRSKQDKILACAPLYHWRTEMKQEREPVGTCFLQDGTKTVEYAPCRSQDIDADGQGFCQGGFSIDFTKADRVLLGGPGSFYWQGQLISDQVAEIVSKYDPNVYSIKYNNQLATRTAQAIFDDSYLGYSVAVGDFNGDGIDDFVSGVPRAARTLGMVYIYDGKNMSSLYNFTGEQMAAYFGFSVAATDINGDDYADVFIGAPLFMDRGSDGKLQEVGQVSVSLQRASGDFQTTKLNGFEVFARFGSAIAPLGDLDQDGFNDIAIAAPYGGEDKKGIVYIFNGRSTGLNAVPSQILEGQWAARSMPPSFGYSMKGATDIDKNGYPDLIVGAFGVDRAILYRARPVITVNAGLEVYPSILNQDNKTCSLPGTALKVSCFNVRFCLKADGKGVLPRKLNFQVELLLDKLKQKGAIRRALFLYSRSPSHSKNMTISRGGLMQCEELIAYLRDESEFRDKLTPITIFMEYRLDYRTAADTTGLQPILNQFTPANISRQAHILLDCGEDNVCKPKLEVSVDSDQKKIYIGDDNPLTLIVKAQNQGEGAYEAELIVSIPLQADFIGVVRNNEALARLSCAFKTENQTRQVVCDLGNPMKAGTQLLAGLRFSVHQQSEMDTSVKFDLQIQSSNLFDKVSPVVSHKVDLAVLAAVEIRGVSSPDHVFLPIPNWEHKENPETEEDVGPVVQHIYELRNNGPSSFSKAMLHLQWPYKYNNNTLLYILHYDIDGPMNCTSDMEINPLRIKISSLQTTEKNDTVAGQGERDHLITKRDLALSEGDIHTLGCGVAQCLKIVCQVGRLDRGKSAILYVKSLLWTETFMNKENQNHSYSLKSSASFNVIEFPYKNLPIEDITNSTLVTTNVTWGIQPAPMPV
Sequence of human integrin αVβ6 (P18564 22-707 limits assumed): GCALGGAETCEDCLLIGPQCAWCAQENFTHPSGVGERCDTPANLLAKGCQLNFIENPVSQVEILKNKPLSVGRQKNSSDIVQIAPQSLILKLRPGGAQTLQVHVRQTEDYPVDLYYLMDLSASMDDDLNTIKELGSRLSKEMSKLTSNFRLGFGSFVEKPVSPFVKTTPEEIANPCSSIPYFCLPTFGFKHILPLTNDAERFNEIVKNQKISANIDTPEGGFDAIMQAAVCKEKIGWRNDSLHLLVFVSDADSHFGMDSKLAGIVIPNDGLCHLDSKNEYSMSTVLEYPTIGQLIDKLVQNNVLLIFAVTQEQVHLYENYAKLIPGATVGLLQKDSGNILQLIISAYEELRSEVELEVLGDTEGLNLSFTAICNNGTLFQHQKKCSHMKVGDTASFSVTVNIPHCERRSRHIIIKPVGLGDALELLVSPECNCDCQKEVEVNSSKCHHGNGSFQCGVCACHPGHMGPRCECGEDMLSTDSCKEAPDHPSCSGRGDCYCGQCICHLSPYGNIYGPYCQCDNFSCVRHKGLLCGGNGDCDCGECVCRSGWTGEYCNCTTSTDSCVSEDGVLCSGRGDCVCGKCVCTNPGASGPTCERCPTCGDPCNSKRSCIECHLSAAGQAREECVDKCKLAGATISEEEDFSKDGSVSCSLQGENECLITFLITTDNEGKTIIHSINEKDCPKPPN
Method in brief: as §1

[3] = biological target: human integrin αVβ1 (Homo sapiens, UniProt P05556+P06756)
Sequence of human integrin αVβ1 (P06756 31-992 limits assumed): as the sequence (P06756 31-992 limits assumed) above
Sequence of human integrin αVβ1 (P05556 21-728 limits assumed): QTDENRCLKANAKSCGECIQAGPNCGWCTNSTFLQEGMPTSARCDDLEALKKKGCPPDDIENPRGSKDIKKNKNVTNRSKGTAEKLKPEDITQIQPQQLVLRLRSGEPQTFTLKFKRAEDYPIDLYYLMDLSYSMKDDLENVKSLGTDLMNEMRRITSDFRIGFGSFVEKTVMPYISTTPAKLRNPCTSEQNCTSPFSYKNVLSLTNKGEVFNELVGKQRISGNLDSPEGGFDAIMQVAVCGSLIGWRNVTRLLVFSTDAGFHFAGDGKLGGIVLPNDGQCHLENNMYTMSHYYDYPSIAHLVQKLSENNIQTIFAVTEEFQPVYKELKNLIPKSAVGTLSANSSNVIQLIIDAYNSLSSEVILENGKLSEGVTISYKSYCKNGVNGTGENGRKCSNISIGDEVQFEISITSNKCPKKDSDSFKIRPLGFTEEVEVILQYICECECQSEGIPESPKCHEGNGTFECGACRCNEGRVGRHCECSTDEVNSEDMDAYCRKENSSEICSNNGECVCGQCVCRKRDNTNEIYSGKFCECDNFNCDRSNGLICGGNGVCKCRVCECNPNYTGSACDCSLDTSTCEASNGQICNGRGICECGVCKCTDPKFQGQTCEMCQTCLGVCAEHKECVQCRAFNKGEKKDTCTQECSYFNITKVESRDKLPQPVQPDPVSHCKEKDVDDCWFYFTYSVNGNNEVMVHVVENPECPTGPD
Method in brief: as §1

Sequence of human integrin αVβ8 (P06756 31-992 limits assumed): as the sequence (P06756 31-992 limits assumed) above
Sequence of human integrin αVβ8 (P26012 43-684 limits assumed): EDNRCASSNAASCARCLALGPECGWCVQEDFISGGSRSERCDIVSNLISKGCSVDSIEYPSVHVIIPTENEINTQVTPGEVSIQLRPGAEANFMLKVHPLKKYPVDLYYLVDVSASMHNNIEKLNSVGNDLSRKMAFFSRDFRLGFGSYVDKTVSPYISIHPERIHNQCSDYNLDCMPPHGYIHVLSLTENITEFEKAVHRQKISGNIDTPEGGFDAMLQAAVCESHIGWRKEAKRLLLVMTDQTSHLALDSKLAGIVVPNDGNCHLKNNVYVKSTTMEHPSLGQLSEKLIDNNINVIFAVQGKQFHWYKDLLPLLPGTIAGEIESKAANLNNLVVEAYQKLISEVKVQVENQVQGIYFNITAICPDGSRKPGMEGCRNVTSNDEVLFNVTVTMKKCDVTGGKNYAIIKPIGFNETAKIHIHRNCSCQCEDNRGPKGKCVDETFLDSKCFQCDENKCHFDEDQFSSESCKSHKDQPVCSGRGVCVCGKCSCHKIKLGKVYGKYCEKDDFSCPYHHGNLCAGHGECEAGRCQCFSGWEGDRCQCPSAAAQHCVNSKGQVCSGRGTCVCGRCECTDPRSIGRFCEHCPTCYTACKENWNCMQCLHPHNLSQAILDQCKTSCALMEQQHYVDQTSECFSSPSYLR

IC50 [1] [nM]	IC50 [2] [nM]	IC50 [3] [nM]	SMILES
50 to 150	≥ 500	< 50	O=C(Cc1ccccc1)N[C@@H](CCOCCCCc1ccc2c(n1)NCCC2)C(=O)O [Compound 81, N-(2-phenylacetyl)-O-(4-(5,6,7,8-tetrahydro-1,8-naphthyridin-2-yl)butyl)-L-homoserine]
< 50	≥ 500	< 50	O=C(O)[C@H](CCOCCCCc1ccc2c(n1)NCCC2)NC(=O)C1(c2ncsc2Cl)CC1 [Compound 82, N-(1-(5-chlorothiazol-4-yl)cyclopropane-1-carbonyl)-O-(4-(5,6,7,8-tetrahydro-1,8-naphthyridin-2-yl)butyl)-L-homoserine]
50 to 150	250 to 500	< 50	O=C(O)[C@H](CCOCCCCc1ccc2c(n1)NCCC2)NC(=O)C1(C(F)F)CCOC1 (stereo partly drawn) [Compound 83, N-(3-(difluoromethyl)tetrahydrofuran-3-carbonyl)-O-(4-(5,6,7,8-tetrahydro-1,8-naphthyridin-2-yl)butyl)-L-homoserine]
< 50	250 to 500	< 50	O=C(O)[C@H](CCOCCCCc1ccc2c(n1)NCCC2)NC(=O)C1(C(F)(F)F)CCCCC1 [Compound 84, O-(4-(5,6,7,8-tetrahydro-1,8-naphthyridin-2-yl)butyl)-N-(1-(trifluoromethyl)cyclohexane-1-carbonyl)-L-homoserine]
50 to 150	> 500	< 50	O=C(O)[C@H](CCOCCCCc1ccc2c(n1)NCCC2)NC(=O)C1(c2ccc(F)cc2)CCOCC1 [Compound 85, N-(4-(4-fluorophenyl)tetrahydro-2H-pyran-4-carbonyl)-O-(4-(5,6,7,8-tetrahydro-1,8-naphthyridin-2-yl)butyl)-L-homoserine]
< 50	> 500	< 50	O=C(O)[C@H](CCOCCCCc1ccc2c(n1)NCCC2)NC(=O)C1(c2cccc(C(F)(F)F)c2)CCOCC1 [Compound 86, O-(4-(5,6,7,8-tetrahydro-1,8-naphthyridin-2-yl)butyl)-N-(4-(3-(trifluoromethyl)phenyl)tetrahydro-2H-pyran-4-carbonyl)-L-homoserine]
< 50	> 500	< 50	COc1cccc(C2(C(=O)N[C@@H](CCOCCCCc3ccc4c(n3)NCCC4)C(=O)O)CCOCC2)c1 [Compound 87, N-(4-(3-methoxyphenyl)tetrahydro-2H-pyran-4-carbonyl)-O-(4-(5,6,7,8-tetrahydro-1,8-naphthyridin-2-yl)butyl)-L-homoserine]
< 50	> 500	< 50	O=C(O)[C@H](CCOCCCCc1ccc2c(n1)NCCC2)NC(=O)C1(c2cccc(F)c2)CCOCC1 [Compound 88, N-(4-(3-fluorophenyl)tetrahydro-2H-pyran-4-carbonyl)-O-(4-(5,6,7,8-tetrahydro-1,8-naphthyridin-2-yl)butyl)-L-homoserine]
< 50	> 500	< 50	O=C(O)[C@H](CCOCCCCc1ccc2c(n1)NCCC2)NC(=O)C1(c2cccc(Cl)c2)CCOCC1 [Compound 89, N-(4-(3-chlorophenyl)tetrahydro-2H-pyran-4-carbonyl)-O-(4-(5,6,7,8-tetrahydro-1,8-naphthyridin-2-yl)butyl)-L-homoserine]
< 50	> 500	50 to 150	O=C(O)[C@H](CCOCCCCc1ccc2c(n1)NCCC2)NC(=O)C1(n2c(=O)ccc3ccccc32)CC1 [Compound 90, N-(1-(2-oxoquinolin-1(2H)-yl)cyclopropane-1-carbonyl)-O-(4-(5,6,7,8-tetrahydro-1,8-naphthyridin-2-yl)butyl)-L-homoserine]
50 to 150	> 500	< 50	O=C(O)[C@H](CCOCCCCc1ccc2c(n1)NCCC2)NC(=O)C1(n2c(C3CC3)cccc2=O)CC1 [Compound 91, N-(1-(6-cyclopropyl-2-oxopyridin-1(2H)-yl)cyclopropane-1-carbonyl)-O-(4-(5,6,7,8-tetrahydro-1,8-naphthyridin-2-yl)butyl)-L-homoserine]
50 to 150	> 500	50 to 150	COc1cccc(=O)n1C1(C(=O)N[C@@H](CCOCCCCc2ccc3c(n2)NCCC3)C(=O)O)CC1 [Compound 92, N-(1-(6-methoxy-2-oxopyridin-1(2H)-yl)cyclopropane-1-carbonyl)-O-(4-(5,6,7,8-tetrahydro-1,8-naphthyridin-2-yl)butyl)-L-homoserine]
< 50	> 500	< 50	O=C(O)[C@H](CCOCCCCc1ccc2c(n1)NCCC2)NC(=O)C1(n2c(F)cccc2=O)CC1 [Compound 93, N-(1-(6-fluoro-2-oxopyridin-1(2H)-yl)cyclopropane-1-carbonyl)-O-(4-(5,6,7,8-tetrahydro-1,8-naphthyridin-2-yl)butyl)-L-homoserine]
< 50	> 500	< 50	O=C(O)[C@H](CCOCCCCc1ccc2c(n1)NCCC2)NC(=O)C1(n2c(Br)cccc2=O)CC1 [Compound 94, N-(1-(6-bromo-2-oxopyridin-1(2H)-yl)cyclopropane-1-carbonyl)-O-(4-(5,6,7,8-tetrahydro-1,8-naphthyridin-2-yl)butyl)-L-homoserine]
50 to 150	> 500	50 to 150	NC(=O)c1cccc(F)c1C1(C(=O)N[C@@H](CCOCCCCc2ccc3c(n2)NCCC3)C(=O)O)CC1 [Compound 95, N-(1-(2-carbamoyl-6-fluorophenyl)cyclopropane-1-carbonyl)-O-(4-(5,6,7,8-tetrahydro-1,8-naphthyridin-2-yl)butyl)-L-homoserine]
< 50	> 500	< 50	O=C(O)[C@H](CCOCCCCc1ccc2c(n1)NCCC2)NC(=O)C1(C(F)(F)F)CCN(CC(F)(F)F)CC1 [Compound 96, O-(4-(5,6,7,8-tetrahydro-1,8-naphthyridin-2-yl)butyl)-N-(1-(2,2,2-trifluoroethyl)-4-(trifluoromethyl)piperidine-4-carbonyl)-L-homoserine]
250 to 500	250 to 500	50 to 150	O=C(N[C@@H](CCOCCCCc1ccc2c(n1)NCCC2)C(=O)O)c1ccn(-c2ccccc2)n1 [Compound 97, N-(1-phenyl-1H-pyrazole-3-carbonyl)-O-(4-(5,6,7,8-tetrahydro-1,8-naphthyridin-2-yl)butyl)-L-homoserine]
250 to 500	> 500	50 to 150	O=C(N[C@@H](CCOCCCCc1ccc2c(n1)NCCC2)C(=O)O)c1cnn(-c2ccccc2)c1 [Compound 98, N-(1-phenyl-1H-pyrazole-4-carbonyl)-O-(4-(5,6,7,8-tetrahydro-1,8-naphthyridin-2-yl)butyl)-L-homoserine]
50 to 150	< 50	< 50	O=C(N[C@@H](CCOCCCCc1ccc2c(n1)NCCC2)C(=O)O)c1ccnn1-c1ccccc1 [Compound 99, N-(1-phenyl-1H-pyrazole-5-carbonyl)-O-(4-(5,6,7,8-tetrahydro-1,8-naphthyridin-2-yl)butyl)-L-homoserine]
< 50	50 to 150	< 50	O=C(O)[C@H](CCOCCCCc1ccc2c(n1)NCCC2)NC(=O)C1(C(F)(F)F)CCOCC1 [Compound 100, O-(4-(5,6,7,8-tetrahydro-1,8-naphthyridin-2-yl)butyl)-N-(4-(trifluoromethyl)tetrahydro-2H-pyran-4-carbonyl)-L-homoserine]
< 50	> 500	< 50	Cc1ncnc(Cl)c1C1(C(=O)NC(CCOCCCCc2ccc3c(n2)NCCC3)C(=O)O)CC1 (stereo not drawn) [Compound 101, N-(1-(4-chloro-6-methylpyrimidin-5-yl)cyclopropane-1-carbonyl)-O-(4-(5,6,7,8-tetrahydro-1,8-naphthyridin-2-yl)butyl)homoserine]
50 to 150	> 500	50 to 150	Cc1ncnc(O)c1C1(C(=O)N[C@@H](CCOCCCCc2ccc3c(n2)NCCC3)C(=O)O)CC1 [Compound 102, N-(1-(4-hydroxy-6-methylpyrimidin-5-yl)cyclopropane-1-carbonyl)-O-(4-(5,6,7,8-tetrahydro-1,8-naphthyridin-2-yl)butyl)-L-homoserine]
< 50	> 500	< 50	[2H]C1([2H])C([2H])([2H])C1(C(=O)N[C@@H](CCOCCCCc1ccc2c(n1)NCCC2)C(=O)O)c1c(C)ncnc1Cl [Compound 104, N-(1-(4-chloro-6-methylpyrimidin-5-yl)cyclopropane-1-carbonyl-2,2,3,3-d4)-O-(4-(5,6,7,8-tetrahydro-1,8-naphthyridin-2-yl)butyl)-L-homoserine]
